From the Deep4Chem optical property database

Assay: solvent given as SMILES

Structure (SMILES): c1ccc(-c2nc(-c3cccs3)[nH]c2-c2ccccc2)cc1
- emission maximum (in CC#N): 391 nm

Structure (SMILES): [C-]#[N+]c1ccc(-c2ccc(N(C)C)cc2)cc1
- emission maximum (in C1CCCCC1): 360 nm
- emission maximum (in C1CCOC1): 408 nm
- emission maximum (in C1COCCO1): 397 nm
- emission maximum (in CC#N): 429 nm
- emission maximum (in CC(C)=O): 422 nm
- emission maximum (in CCCCCC): 357 nm
- emission maximum (in CCOC(C)=O): 406 nm
- emission maximum (in CN(C)C=O): 433 nm
- emission maximum (in CO): 430 nm
- emission maximum (in CS(C)=O): 447 nm
- emission maximum (in Cc1ccccc1): 387 nm
- emission maximum (in ClC(Cl)Cl): 405 nm
- emission maximum (in ClCCl): 412 nm
- emission maximum (in O): 417 nm
- emission maximum (in c1ccncc1): 422 nm

Structure (SMILES): CC1=[N+]2C(=C(C3=CC4OCCOCCOCCOCCOC4C=C3)c3c4ccccc4c(/C=C/c4ccc(N(C)C)cc4)n3[B-]2(F)F)c2ccccc21 (centres undefined)
- emission maximum (in CC#N): 741 nm

Structure (SMILES): CCN(CC)c1ccc2c(-c3ccccc3C(=O)O)c3c([o+]c2c1)/C(=C/c1nc(C)n2ccccc12)CCC3
- emission maximum (in ClCCl): 735 nm

Structure (SMILES): O=c1[nH]c(=O)n([C@@H]2O[C@H](CO)[C@@H](O)[C@H]2O)cc1-c1cc2ccccc2s1
- emission maximum (in C1COCCO1): 435 nm
- emission maximum (in CC#N): 443 nm
- emission maximum (in CO): 446 nm
- emission maximum (in O): 458 nm

Structure (SMILES): CCCCCN1c2ccccc2Sc2cc(/C=C/c3ccc(/C=C(\C#N)C(=O)O)s3)ccc21
- emission maximum (in ClCCl): 704 nm

Structure (SMILES): COc1ccc(C(=Cc2ccc(/C=C/c3ccc(C#N)cc3)cc2)c2ccc(OC)cc2)cc1
- emission maximum (in C1CCOC1): 467 nm

Structure (SMILES): COc1ccc2oc(=N)c(C#N)cc2c1
- emission maximum (in ClCCl): 468 nm

Structure (SMILES): O=c1c2ccccc2sc2ccc(-n3c4ccccc4c4ccccc43)cc12
- emission maximum (in C1CCOC1): 452.5 nm
- emission maximum (in CCCCCC): 436 nm
- emission maximum (in Cc1ccccc1): 447.5 nm
- emission maximum (in ClC(Cl)Cl): 486.5 nm
- emission maximum (in ClCCl): 483.5 nm

Structure (SMILES): O=C1C=Cc2cc3ccccc3c(=O)n21
- emission maximum (in CC#N): 410 nm
- emission maximum (in CO): 450 nm
- emission maximum (in CS(C)=O): 420 nm
- emission maximum (in ClC(Cl)Cl): 410 nm

Structure (SMILES): COc1ccc(-c2cnc(/C=C/c3ccc(OC)c(OC)c3)o2)cc1
- emission maximum (in ClCCl): 435 nm

Structure (SMILES): CCCCCCCCCCCCn1cccc1/C=C/c1ccc(OCCCC)c2c(/C=C/c3cccn3CCCCCCCCCCCC)ccc(OCCCC)c12
- emission maximum (in Cc1ccccc1): 490 nm

Structure (SMILES): Oc1cccc(C2=[N+]3C(=C(c4ccccc4)c4cccn4[B-]3(F)F)C=C2)c1
- emission maximum (in ClC(Cl)Cl): 553 nm

Structure (SMILES): O=C1c2ccc3c4ccc5c6c(ccc(c7ccc(c2c37)C(=O)N1c1ccc(Cl)cc1)c64)C(=O)N(c1ccc(Cl)cc1)C5=O
- emission maximum (in CN(C)C=O): 534 nm

Structure (SMILES): CCCCCCCCCCOc1ccc(C#Cc2cc3c(C#Cc4ccc(OCCCCCCCCCC)cc4)c(C#Cc4ccc(OCCCCCCCCCC)cc4)c4cc(C#Cc5ccc(OCCCCCCCCCC)cc5)cc5c(C#Cc6ccc(OCCCCCCCCCC)cc6)c(C#Cc6ccc(OCCCCCCCCCC)cc6)c(c2)c3c45)cc1
- emission maximum (in ClCCl): 466 nm

Structure (SMILES): CCN1C(=CC2=C([O-])C(=Cc3[se]c4ccccc4[n+]3CC)C2=O)[Se]c2ccccc21
- emission maximum (in CO): 688 nm
- emission maximum (in ClC(Cl)Cl): 714 nm

Structure (SMILES): COC(=O)COc1ccc(/C=C/C2=[N+]3C(=C(c4ccc(N(C)C)cc4)c4c(C)cc(C)n4[B-]3(F)F)C(C)=C2)cc1
- emission maximum (in CO): 580 nm

Structure (SMILES): CCCCN1c2ccccc2Sc2cc(/C=C/c3nc4nc5ccccc5nc4s3)ccc21
- emission maximum (in C1CCCCC1): 558 nm
- emission maximum (in C1CCOC1): 670 nm
- emission maximum (in C1COCCO1): 640 nm
- emission maximum (in CC(C)=O): 739 nm
- emission maximum (in CCOC(C)=O): 670 nm
- emission maximum (in CCOCC): 635 nm
- emission maximum (in Cc1ccccc1): 621 nm
- emission maximum (in ClCCl): 729 nm

Structure (SMILES): CCCCn1c(-c2ccc(-c3nnc(-c4cccs4)o3)cc2)nc(-c2ccccc2)c1-c1ccccc1
- emission maximum (in ClCCl): 444 nm

Structure (SMILES): F[B-]1(F)Oc2ccccc2-c2nc(-c3ccccc3)c3ccccc3[n+]21
- emission maximum (in Cc1ccccc1): 529 nm

Structure (SMILES): CCCCC1(CCCC)c2cc(C#Cc3ccc4ccc5cccc6ccc3c4c56)ccc2-c2ccc(N(c3ccccc3)c3ccccc3)cc21
- emission maximum (in C1CCCCC1): 436 nm
- emission maximum (in C1CCOC1): 498 nm
- emission maximum (in CC#N): 557 nm
- emission maximum (in CCOC(C)=O): 490 nm
- emission maximum (in CN(C)C=O): 565 nm
- emission maximum (in Cc1ccccc1): 449 nm
- emission maximum (in ClC(Cl)Cl): 486 nm
- emission maximum (in ClCCl): 516 nm

Structure (SMILES): CCOC(=O)CCCCCn1c2ccc([N+](=O)[O-])cc2c(=O)c2cc3c(cc21)c(=O)c1cc([N+](=O)[O-])ccc1n3CCCCCC(=O)OCC
- emission maximum (in ClCCl): 553 nm

Structure (SMILES): C(S/C=C/c1ccc(/C=C/SC=C2CCCC2)cc1)=C1CCCC1
- emission maximum (in ClCCl): 424 nm

Structure (SMILES): COc1nc(Nc2ccc3c4c(cccc24)C(=O)c2ccccc2-3)nc(OC)n1
- emission maximum (in CC#N): 554.02 nm
- emission maximum (in CC(C)=O): 533.9 nm
- emission maximum (in CC(C)O): 576.04 nm
- emission maximum (in CCCCOCCCC): 516 nm
- emission maximum (in CCOC(C)=O): 523.01 nm
- emission maximum (in CCOCC): 520.02 nm
- emission maximum (in CO): 586.85 nm
- emission maximum (in Cc1ccccc1): 521.92 nm
- emission maximum (in Clc1ccccc1): 526.87 nm
- emission maximum (in N#Cc1ccccc1): 535.91 nm
- emission maximum (in O=C1CCCCC1): 531.91 nm

Structure (SMILES): O=C(O)c1ccc(-c2nc(-c3ccccc3)c(-c3ccccc3)[nH]2)cc1
- emission maximum (in CO): 414.5 nm

Structure (SMILES): CC(C)(C)c1ccc(-c2nc3c4ccccc4c4ccccc4c3n2-c2ccc(C(C)(C)C)cc2)cc1
- emission maximum (in C1CCOC1): 390 nm
- emission maximum (in C1COCCO1): 389 nm
- emission maximum (in CC#N): 389 nm
- emission maximum (in CCCCCC): 385 nm
- emission maximum (in CCCCOCCCC): 389 nm
- emission maximum (in CCN(CC)CC): 388 nm
- emission maximum (in CCOC(C)=O): 390 nm
- emission maximum (in CCOCC): 388 nm
- emission maximum (in CN(C)C=O): 391 nm
- emission maximum (in Cc1ccccc1): 390 nm
- emission maximum (in ClC=C(Cl)Cl): 392 nm
- emission maximum (in ClCCl): 392 nm

Structure (SMILES): COc1ccc(C2=C3C=C(/C=C/C(=O)OC(C)(C)C)C=[N+]3[B-](F)(F)n3cccc32)cc1
- emission maximum (in ClCCl): 572 nm

Structure (SMILES): CCCCn1c(-c2ccc(-c3nnc(-c4ccccc4)o3)cc2)nc2c3ccccc3c3ccccc3c21
- emission maximum (in ClCCl): 446 nm

Structure (SMILES): FC(F)(F)c1ccc(-n2c(-c3ccc(N(c4ccc(-c5ccc(N(c6ccc(-c7nc8c9ccccc9c9ccccc9c8n7-c7ccc(C(F)(F)F)cc7)cc6)c6ccc(-c7nc8c9ccccc9c9ccccc9c8n7-c7ccc(C(F)(F)F)cc7)cc6)cc5)cc4)c4ccc(-c5nc6c7ccccc7c7ccccc7c6n5-c5ccc(C(F)(F)F)cc5)cc4)cc3)nc3c4ccccc4c4ccccc4c32)cc1
- emission maximum (in ClCCl): 442 nm

Structure (SMILES): Cc1ccc(S(=O)(=O)Nc2c(/C=C/c3ccccc3)sc(-c3ccc(N(C)C)s3)c2-c2cccnc2)cc1
- emission maximum (in CC#N): 610 nm

Structure (SMILES): CN(C)c1ccc2c(-c3cc(N)ccc3C(=O)[O-])c3ccc(=[N+](C)C)cc-3oc2c1
- emission maximum (in CCO): 567 nm
- emission maximum (in O): 574 nm

Structure (SMILES): c1ccc2c(c1)-c1sc3ccccc3c1C21c2ccccc2-c2sc3ccccc3c21
- emission maximum (in ClCCl): 368 nm

Structure (SMILES): C(#Cc1ccccc1)C1=Cc2ccc3ccccc3c2NB1c1ccccc1
- emission maximum (in C1CCCCC1): 416 nm

Structure (SMILES): CN(C)c1ccc(C2=[N+]3C(=Nc4c(-c5ccc(O)cc5)cc(-c5ccc(N(C)C)cc5)n4[B-]3(F)F)C(c3ccc(O)cc3)=C2)cc1
- emission maximum (in C1CCOC1): 815 nm
- emission maximum (in CS(C)=O): 832 nm
- emission maximum (in Cc1ccccc1): 813 nm

Structure (SMILES): C(=C\c1ccccc1/C=C/c1c2ccccc2cc2ccccc12)/c1ccncc1
- emission maximum (in C1CCOC1): 498 nm

Structure (SMILES): Cc1ccc(C2=C3C=CC(=[N+](C)C)C=C3[Si](C)(C)c3cc(N(C)C)ccc32)c(C)c1
- emission maximum (in O): 660 nm

Structure (SMILES): Cc1cc2ccccc2cc1C
- emission maximum (in C1CCCCC1): 339.21 nm

Structure (SMILES): O=C1c2ccc3c4c(-c5ccccc5)cc5c6c(ccc(c7c(-c8ccccc8)cc(c2c37)C(=O)N1C1CCCCC1)c64)C(=O)N(C1CCCCC1)C5=O
- emission maximum (in ClC(Cl)Cl): 651 nm

Structure (SMILES): COC(=O)c1cc(=O)n(C)c2cc(-c3ccc4c(c3)OCO4)sc12
- emission maximum (in CC#N): 482 nm
- emission maximum (in ClCCl): 474 nm

Structure (SMILES): CCOC(=O)c1ccc(C2CC(c3cccc4ccccc34)=NN2c2ccc(F)cc2)cc1 (centres undefined)
- emission maximum (in ClCCl): 481 nm

Structure (SMILES): c1cc2ccc3ccc4cc3c2cc1c1ccc2c(c1)c1cc(ccc1[C@]13OCCO[C@]21OCCO3)c1ccc2c(c1)c1cc4ccc1[C@]13OCCO[C@]21OCCO3
- emission maximum (in Cc1ccccc1): 388 nm

Structure (SMILES): Brc1ccc(N/C=C/C=[NH+]c2ccc(Br)cc2)cc1
- emission maximum (in CS(C)=O): 497 nm

Structure (SMILES): O=C(c1ccc(N2c3ccccc3Oc3ccccc32)cc1)c1ccc2sc3ccccc3c2c1
- emission maximum (in C1CCOC1): 594 nm
- emission maximum (in c1ccc2c(c1)c1ccccc1n2-c1ccc(-c2ccc(-n3c4ccccc4c4ccccc43)cc2)cc1): 524 nm

Structure (SMILES): CC(C)(C)c1ccc(-c2ccc(-c3ccc(C(C)(C)C)cc3)c3nsnc23)cc1
- emission maximum (in ClCCl): 512 nm

Structure (SMILES): CCCCN(CCCC)c1ccc(C#Cc2cc(C#Cc3ccc(C(F)(F)F)cc3)c(C#Cc3ccc(N(CCCC)CCCC)cc3)cc2C#Cc2ccc(C(F)(F)F)cc2)cc1
- emission maximum (in ClCCl): 546 nm
- emission maximum (in c1ccccc1): 506 nm

Structure (SMILES): c1cc2c(C3SCCCS3)c3ccc(=[N+]4CCCCC4)cc-3oc2cc1N1CCCCC1
- emission maximum (in CO): 606.31 nm

Structure (SMILES): c1ccc2c(-c3ccc(-c4nnc(-c5ccc(-c6nnc(-c7ccc(-c8cccc9ccccc89)s7)o6)cc5)o4)s3)cccc2c1
- emission maximum (in C1COCCO1): 434 nm
- emission maximum (in CC#N): 458 nm
- emission maximum (in CC(=O)N(C)C): 462 nm
- emission maximum (in CCCCCCCCCCO): 440 nm
- emission maximum (in CCCCCCCCO): 442 nm
- emission maximum (in CCCCCCO): 445 nm
- emission maximum (in CCCCO): 451 nm
- emission maximum (in CCO): 459 nm
- emission maximum (in CS(C)=O): 468 nm
- emission maximum (in Cc1ccccc1): 434 nm
- emission maximum (in ClC(Cl)Cl): 410 nm

Structure (SMILES): CN(C)c1ccc2ccc3oc(=O)c(-c4ccccc4)nc3c2c1
- emission maximum (in c1ccccc1): 608 nm

Structure (SMILES): COc1ccc(-n2nc(C(=O)N3CCCC3)c(N3CCCC3)n2)cc1
- emission maximum (in CC#N): 412 nm
- emission maximum (in CCCCCC): 405 nm
- emission maximum (in CCO): 410 nm
- emission maximum (in CN(C)C=O): 396 nm
- emission maximum (in ClC(Cl)Cl): 411 nm

Structure (SMILES): Cc1ccc2c(CC(=O)NN)coc2c1
- emission maximum (in C1CCOC1): 400 nm
- emission maximum (in CC#N): 397 nm
- emission maximum (in CC(C)=O): 402 nm
- emission maximum (in CCCCO): 398 nm
- emission maximum (in CCCO): 394 nm
- emission maximum (in CCO): 397 nm
- emission maximum (in CCOC(C)=O): 390 nm
- emission maximum (in CN(C)C=O): 412 nm
- emission maximum (in CO): 391 nm
- emission maximum (in ClCCl): 399 nm
